# Results: patent US20030157715A1, “Modulation of chromosome function by chromatin remodeling agents” (priority 2000, published 2003)
# Legend:
# [1] = system: Drosophila histone SAR; experiment: DNase I footprinting on SAR probe; type: binding
# Protocol: Synthetic oligonucleotides […] and […] were hybridized to obtain the W9 probe, oligomerized by ligation and digested with BamHI and BglII to obtain different tandem repeats. The following oligonucleotides were prepared identically: GAF31 is composed of the oligonucleotides […] and […] and, BrownI of oligonucleotides […] and […]. Fragments were purified on low-melt agarose gels and then cloned into a modified pSP64 vector, cut by BamHI and BglII. End-labeling was carried out following digestion with HindIII and a fill-in reaction with Klenow DNA polymerase. The labeled plasmid was cut with PvuII and the target fragments purified from low-melting agarose gels. The 657 bp EcoR1/Hinf1 fragment of the Drosophila histone SAR was cloned into the SmaI site of the modified pSP64 plasmid. This SAR probe was end-labeled following-digestion with EcoR1, then cut with ClaI and the resulting 347 bp fragment purified from low-melting agarose gels.
# All reactions were performed in a total volume of 40 μl. A polyamide stock solution or buffer (for reference lanes) was added to an assay buffer containing 20 kcpm radiolabeled DNA, affording final concentrations of 10 mM Tris-HCl (pH 7.4), 10 mM KCl, 10 MM MgCl, 5 mM CaCl2, 0.5 mM EDTA, 0.5 mM EGTA, 1 mM DTT and 0.1% digitonine. The solutions were allowed to equilibrate for at least 2 h at room temperature. Footprinting reactions were initiated by the addition of 2 μl of a DNase stock solution (containing −100 μg DNase I in buffer) and allowed to proceed for 2 min at room temperature. The reactions were stopped by addition of 10 μl of a solution containing 1.25 M NaCl, 100 mM EDTA. Next, 5 μl of a 1% SDS solution was added, followed by 2 μl of a solution containing 1 μg poly(dA-dT), 1 μg salmon sperm DNA and 10 μg glycogen and the DNA was ethanol precipitated (20 min at −20 C.). The reactions were resuspended in 4 μl of 80% formamide loading buffer, denatured 10 min at 85 C., cooled on ice and electrophoresed on 8% polyacrylamide denaturing gels (5% cross-link, 8 M urea) at 30 W for 1 h. The gels were dried and exposed o/n at −70 C.
# [2] = system: homozygous bw^D/bw^D flies; experiment: P31 fed to developing homozygous brown-dominant flies; type: in vivo; settings: 40 homozygous bw^D males
# [3] = system: GAF binding site from the Ubx promoter; experiment: DNase I footprinting on Ubx GAF binding site (GAF31 probe); design: species or system Drosophila melanogaster; settings: same probe as bw^D repeats
# From the text: A footprint experiment was therefore carried out with this protein. The DNA probe (GAF31) used for this purpose contains besides the (AAGAG)2 motif (the target of P31) a typical promoter proximal GAF binding site derived from the Ubx gene (Biggin et al., 1988). This Ubx site contains the pentameric consensus sequence GAGAG of GAF (Omichinski et al., 1997). […] Selective Staining of GAGAA Satellite V in Nuclei and Polytene Chromosomes:
# Synthetic oligonucleotides […] and […] were hybridized to obtain the W9 probe, oligomerized by ligation and digested with BamHI and BglII to obtain different tandem repeats. The following oligonucleotides were prepared identically: GAF31 is composed of the oligonucleotides […] and […] and, BrownI of oligonucleotides […] and […]. Fragments were purified on low-melt agarose gels and then cloned into a modified pSP64 vector, cut by BamHI and BglII. End-labeling was carried out following digestion with HindIII and a fill-in reaction with Klenow DNA polymerase. The labeled plasmid was cut with PvuII and the target fragments purified from low-melting agarose gels. The 657 bp EcoR1/Hinf1 fragment of the Drosophila histone SAR was cloned into the SmaI site of the modified pSP64 plasmid. This SAR probe was end-labeled following-digestion with EcoR1, then cut with ClaI and the resulting 347 bp fragment purified from low-melting agarose gels. […]
# [4] = system: GAGAA repeats (satellite V / bw^D repeats); experiment: DNase I footprinting on GAGAA repeats (GAF31 and Brown I probes); type: binding, Drosophila melanogaster
# From the text: FIG. 3 Binding specificity of P31 and GAGA factor Panel A: DNAse I footprinting experiment with P31 and affinity cleavage with P31E are shown on GAF31 and the Brown I probes. The GAF31 and Brown I probes contains a (AAGAG)2 motif and GAGA factor (GAF) binding site from the Ubx promoter (Biggin et al., 1988). […] The Brown I oligo (a tandem repeat) includes an (AAGAG)s binding site and a degenerate P31 binding site (AACAC)2 as indicated. P31 concentrations used (nM) are indicated. Lanes labeled P31E (top) are affinity cleavage reactions with 1 nM of P31E on either probe. Binding orientations of P31E on these probes are indicated by arrowheads on the brackets pointing towards the N-terminus of the molecule. The letter G refers the G nucleotide cleavage reaction. Panel B: DNAse I footprinting experiment with purified GAGA factor (GAF) on the GAF31 probe. Note that GAF binds both the (AAGAG)2 motif and the binding site from the Ubx promoter.
# A polyamide that targets the abundant satellite V composed of GAGAA repeats (Lohe et al., 1993) was synthesized. Designing molecules that would bind to this repeat motif represented a challenge since with current knowledge, targeting of sequences containing 5′-GNG-3′ or 5′-GA-3′ with drugs composed of pyrrole and imidazole is difficult. However, successful targeting to sequences containing 5′-GTG-3′ was previously achieved using an Im-β-Im motif where β-alanine replaces the function of pyrrole (Turner et al., 1998). Since β-alanine, like pyrroles, is degenerate for […] and T^•A base pairs, we designed a compound based on these observations, to recognize a sequence composed of two tandem GAGAA repeats by systematic placement of -alanine at the N-terminal neighbor of imidazole. The binding affinity and specificity of this compound, termed P31 (=Im-β-Im-Py-β-Im-β-Im-β-Dp), were evaluated by DNAse I footprinting. For this purpose, two different probes were examined, both containing GAGAA repeats. […] The apparent binding constant of P31 for this sequence was estimated at 0.25 nM. […]
Structure (SMILES),Ratio ([1]; Kdapp W9 / Kdapp SAR (SAR specificity factor)),"Kd ([1]; apparent binding affinity, DNase I footprinting, SAR probe, read-out: Kdapp SAR) [pM]",mean number of bristles on A6 [2],ligand concentration up to which no binding is noted at the Ubx GAF site [3] [nM],concentration at which bw^D repeats are protected ([4]; 2 consecutive bw^D repeats (GAGAAGAGAA)) [nM],"Kd ([4]; DNase I footprinting, read-out: apparent binding constant for two GAGAA repeats) [pM]",affinity for target binding site (in words) ([4]; two GAGAA repeats)
"CN(C)CCCNC(=O)CCNC(=O)c1cc(NC(=O)c2cc(NC(=O)c3cc(NC(=O)CCNC(=O)c4cc(NC(=O)c5cc(NC(=O)c6cccn6C)cn5C)cn4C)cn3C)cn2C)cn1C [Compound P9, PyPyPy-β-PyPyPy-β-Dp]",1.4,550,,,,,
"CN(C)CCCNC(=O)CCNC(=O)c1nc(NC(=O)CCNC(=O)c2nc(NC(=O)CCNC(=O)c3cc(NC(=O)c4nc(NC(=O)CCNC(=O)c5nccn5C)cn4C)cn3C)cn2C)cn1C [Compound P31, Im-β-Im-Py-β-Im-β-Im-β-Dp]",,,6,> 25,0.1,250,subnanomolar affinity
